The source of these data is article PMC5526998, “Structural analysis of the regulatory mechanism of MarR protein Rv2887 in M. tuberculosis” (Scientific Reports, 2017).

The target of this assay is Rv2887 (Mycobacterium tuberculosis, UniProt P9WME9). Kind of assay: biochemical.
Sequence of Rv2887 (P9WME9 whole entry): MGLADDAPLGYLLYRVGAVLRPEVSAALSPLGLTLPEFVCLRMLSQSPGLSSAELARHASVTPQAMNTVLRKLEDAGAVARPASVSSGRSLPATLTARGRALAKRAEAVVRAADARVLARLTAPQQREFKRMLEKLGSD

Turning to `Nc1ccc(C(=O)O)c(O)c1` [PAS], binding was put at a Kd of 183 µM.
Then `Cc1ccc(C)c(OCCCC(C)(C)C(=O)O)c1` [gemfibrozil], with 7.94 µM.
